Reference: patent US20200155555A1, “VITAMIN RECEPTOR DRUG DELIVERY CONJUGATES FOR TREATING INFLAMMATION” (Endocyte, Inc., priority 2007, published 2020)
“And” between values parts separate entries of the source, which are not always exact repeats. Equal values may be shown once.

Legend:
[1] = test system: rats with adjuvant-induced arthritis (AIA); assay: Adjuvant-induced arthritis (AIA) model; settings: for Splenomagly (% increase in spleen weight relative to healthy rats) / % Inhibition in paw edema / % Weight loss: AIA rats; for % Weight loss: Day 24 relative to first day of treatment
Procedure: Female Lewis rats were fed a folate-deficient diet (Harlan Teklad, Indianapolis, Ind.) for 9-10 days prior to arthritis induction. The adjuvant-induced arthritis (AIA) was induced by intradermal inoculation (at the base of tail) of 0.5 mg of heat-killed Mycobacteria butyricum (BD Diagnostic Systems, Sparks, Md.) in 100 μL light mineral oil (Sigma). Ten days after arthritis induction, paw edema in rats was assessed using a modified arthritis scoring system: 0=no arthritis; 1=swelling in one type of joint; 2=swelling in two types of joint; 3=swelling in three types of joint; 4=swelling of the entire paw. A total score for each rat is calculated by summarizing the scores for each of the four paws, giving a maximum score of 16 for each rat. On Day 10 post arthritis induction, rats with a total arthritis score of ≥2 were removed from the study and the remaining rats were distributed evenly across the control and treatment groups (n=5 for all groups except that n=2-3 for healthy controls). All treatments started on Day 10 unless mentioned otherwise. […]
Rats with adjuvant arthritis were treated subcutaneously with EC0932 (250 nmol/kg) in the absence or presence of 500-fold excess of EC0923 (125 μmol/kg) on days 10, 13, 17, and 20 post arthritis induction. The animals in the healthy and arthritis control groups were left untreated. The arthritis scores and animal body weights were recorded three times a week (see FIG. 19A, B). At the completion of study (day 24), the rats were euthanized by CO2 asphyxiation and processed for paw and spleen weights (see FIG. 20A, B).
The rat adjuvant induced arthritis (AIA) model resembles the characteristics of RA in humans and has been widely used to study the impact of novel anti-inflammatory agents.

[2] = molecular target: folate-receptor-beta positive CHO-FR-β cells (Homo sapiens, UniProt P14207); settings: displacement of 3H-folic acid
[3] = molecular target: folate receptors (FR-α) of KB cells (Homo sapiens, UniProt P15328); settings: competitive binding with 3H-folic acid, FR-α positive KB cells
[4] = Plasma pharmacokinetics after a single s.c. dose of EC0746 or aminopterin
Procedure: Female Lewis rats with rounded tip jugular vein catheters (Harlan) were fed regular rodent diet and used in this study. The animals were given a single subcutaneous dose of EC0746 at 500 nmol/kg. Whole blood samples (300 μl) were collected from the animals at the following time points: 1 min, 10 min, 30 min, 1 h, 2 h, 3 h, 4 h, and 8 h after injection. The blood samples were placed into anti-coagulant tubes containing 1.7 mg/mL of K3-EDTA and 0.35 mg/mL of N-Maleoyl-beta-alanine (0.35 mg/mL). Plasma samples were obtained by centrifugation for 3 min at ˜2,000 g and stored at −80° C. The amount of EC0746 and its released base drugs (EC0470 & aminopterin) were determined by HPLC using the EC0746 injection solution as the standard (see FIG. 14). […] A similar method was used to determine the plasma pharmacokinetics of aminopterin (see FIG. 15).
Thus, the plasma concentrations of EC0746 and two primary metabolites, AMT and AMT hydrazide, were determined by LC/MS/MS after a single subcutaneous EC0746 administration. […] For comparison, the pharmacokinetics of subcutaneously dosed AMT (500 nmol/kg) was also examined (FIG. 33B).

[5] = Maximum tolerated dose (MTD) in healthy folate-deficient rats; type: in vivo
Procedure: Healthy rats were administered a subcutaneous injection of the indicated dose of aminopterin or EC0746 biweekly for 2 weeks; control animals, no treatment, 100 nmole/kg aminopterin, 50 nmole/kg aminopterin, 500 nmole/kg EC0746, or 2000 nmole/kg EC0746. The animals were weighed daily. See FIG. 16A, B. A dose of 0.1 μmol/kg of aminopterin in folate deficient rats is above the MTD; therefore, the projected MTD of EC0746 would be <0.5 μmol/kg based solely on ˜20% free drug release shown in the previous Example. However, the MTD of EC0746 is actually 2.0 μmol/kg, which is equivalent to 0.4 μmol/kg, or—8× higher than the MTD for free aminopterin. On a molar basis for total aminopterin, the MTD is 40× higher. The therapeutic index (MTD for healthy animals/ED50 for treatment of adjuvant-induced arthristis in female Lewis rats) for EC746 is about 9.5 (2000/210).
Since the toxicity of antifolates can be easily masked by rodent diets enriched with folate, healthy rats on a folate-deficient diet (Harlan) were used to determine the maximum-tolerated-dose levels (MTD) of EC0746, AMT and MTX. The animals were given biweekly injections of EC0746, AMT, and MTX for two weeks. The MTD dose was defined as the dose that had caused at least 13-14% weight loss combined with clinical signs of stress and at least one animal in the >MTD dose group needed to be euthanized. Standard hematologic and blood chemistry parameters were examined as needed along with histopathology. The MTDs of EC0746, MTX and AMT were determined to be 2000, 1000, and 50 nmol/kg, respectively. At above the MTD dose level, the main toxicities of EC0746 were similar to those of AMT and MTX, including manifested gastrointestinal distress (diarrhea), swollen muzzle, immunosuppression (bone marrow, thymus), low white-blood-cell count, low platelet count, and infections. […] Overall, EC0746 was approximately 40-fold less toxic than AMT and 2-fold less toxic than MTX on an equimolar basis in these folate-deficient animals; however, its toxicity profile at above MTD levels was not dissimilar from that of AMT and MTX.

RAW264.7 cells = assay: XTT cell viability / proliferation assay; type: cell-based, murine
Procedure: After 2 h incubation, the drug-containing media were replaced and the cells were allowed to incubate further for 70 h. Four hours prior to the end of incubation, LPS was added to the treated cells at a final concentration of 100 ng/mL. 100 μL of the culture supernatants were collected for TNF-α analysis using a commercial ELISA kit.
RAW264.7 cells in 96-well plates were treated with vehicle (culture medium) or 10-fold serial dilutions of EC0932 without or with 100-fold excess free folate. The drug-containing medium was replaced after 2 h treatment and the cells were allowed to incubate further in standard medium for 70 h. Four hours prior to the end of incubation, LPS was added to the treated cells at a final concentration of 100 ng/mL. […] The cell viability was assessed by adding XTT (2,3-bis(2-methoxy-4-nitro-5-sulfo-phenyl)-2H-tetrazolium-5-carboxanilide) to the remaining medium for an additional 4 h following the manufacturer's instructions (Roche Applied Science, Indianapolis, Ind.).
At 4 h before the end of incubation, LPS (100 ng/ml) was added to the culture medium to stimulate cytokine production.

[6] = etanercept s.c. 10 mg/kg once every 3 days
[7] = single sc dose of EC0746, 500 nmole/kg, rats

Sequence of folate receptors (FR-α) of KB cells (P15328 25-234): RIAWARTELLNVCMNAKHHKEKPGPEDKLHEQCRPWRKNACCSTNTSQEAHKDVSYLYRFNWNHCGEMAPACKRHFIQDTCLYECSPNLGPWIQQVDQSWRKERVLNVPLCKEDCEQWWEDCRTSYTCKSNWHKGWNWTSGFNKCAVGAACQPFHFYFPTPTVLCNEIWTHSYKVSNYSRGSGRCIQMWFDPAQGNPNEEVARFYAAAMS
Sequence of folate-receptor-beta positive CHO-FR-β cells (P14207 17-230): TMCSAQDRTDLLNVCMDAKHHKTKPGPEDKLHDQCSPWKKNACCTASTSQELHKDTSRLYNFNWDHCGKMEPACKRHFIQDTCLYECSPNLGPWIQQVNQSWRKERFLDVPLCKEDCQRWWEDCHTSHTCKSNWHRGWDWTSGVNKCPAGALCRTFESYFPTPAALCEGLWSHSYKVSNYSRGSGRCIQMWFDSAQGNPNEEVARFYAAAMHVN

Molecule: CN(Cc1cnc2nc(N)nc(N)c2n1)c1ccc(C(=O)N[C@@H](CCC(=O)O)C(=O)O)cc1 [methotrexate]
- Splenomagly (% increase in spleen weight relative to healthy rats) ([1]; oral, 250 nmol/kg biw): 42 ± 17%
- % Inhibition in paw edema ([1]; oral, 250 nmol/kg biw, Day 24): 70 ± 5%
- % Weight loss ([1]; oral, 250 nmol/kg biw): −14 ± 2%
- % Weight loss ([1]; oral, 1650 nmol/kg qw): −10 ± 2%
- % Inhibition in paw edema ([1]; oral, 1650 nmol/kg qw, calculated based on arthritis scores on Day 24): 47 ± 10 %
- Splenomagly (% increase in spleen weight relative to healthy rats) ([1]; sc, 250 nmol/kg biw): 24 ± 3%
- % Inhibition in paw edema ([1]; sc, 250 nmol/kg biw, Day 24): 78 ± 10%
- % Weight loss ([1]; sc, 250 nmol/kg biw): −2 ± 4%
- Splenomagly (% increase in spleen weight relative to healthy rats) ([1]; sc, 500 nmol/kg biw): 20 ± 4%
- % Inhibition in paw edema ([1]; sc, 500 nmol/kg biw, Day 24): 88 ± 7%
- % Weight loss ([1]; sc, 500 nmol/kg biw): −2 ± 7%
- decrease in dorsal to ventral paw thickness ([1]; oral MTX 250 nmol/kg biweekly): 63%
- decrease in summed histological score ([1]; oral MTX 250 nmol/kg biweekly): 73%
- reductions in all scored histology parameters vs untreated controls ([1]; oral MTX 250 nmol/kg biweekly): 66-84%
- blocking of anti-arthritic activity by folate competitor ([1]; s.c. MTX 250 nmol/kg/dose with 500-fold excess EC0923): not significantly blocked by excess EC0923
- effect on development and severity of arthritis ([1]; s.c. MTX 250 nmol/kg/dose, 2 weeks): significantly improved the development and severity of arthritis
- reduction of local (paw) and systemic (spleen) inflammation ([1]; sc 300 nmol/kg on days 10, 13, 17, 20): similarly active in reducing local (paw) and systemic (spleen) inflammation
- Relative affinity to folate receptors (folic acid set as 1) [2]: 0.005
- Relative affinity to folate receptors (folic acid set as 1) [3]: 0.018

Molecule: etanercept
- Splenomagly (% increase in spleen weight relative to healthy rats) ([1]; sc, 10 mg/kg q3d): 42 ± 7%
- % Inhibition in paw edema ([1]; sc, 10 mg/kg q3d, Day 24): 46 ± 9%
- % Weight loss ([1]; sc, 10 mg/kg q3d): −15 ± 2%
- decrease in dorsal to ventral paw thickness [1, 6]: 40%
- decrease in summed histological score [1, 6]: 43%
- reduction in bone resorption (histology) [1, 6]: 55%
- reduction in inflammation (histology) [1, 6]: 42%

Molecule: Nc1nc(N)c2nc(CNc3ccc(C(=O)N[C@@H](CCC(=O)O)C(=O)O)cc3)cnc2n1 [aminopterin]
- delay of peak plasma appearance from the EC0746 Cmax ([4]; rat, in vivo, sc, 500 nmol/kg): 30 min
- lethality to AIA rats ([1]; AMT mixed with free folic acid (1:1), 500 nmol/kg/dose, biweekly): 100%
- MTD at 2 weeks ([5]; rat, in vivo, folate deficient rats, sc biweekly for 2 weeks): < 0.1 µmol/kg

Molecule: N=c1[nH]c(N)nc2ncc(CNc3ccc(C(=O)N[C@@H](CCC(=O)NNC(=O)OCCSSC[C@H](NC(=O)[C@H](CCC(=O)NC[C@H](O)[C@@H](O)[C@H](O)[C@H](O)CO)NC(=O)[C@H](CCC(=O)O)NC(=O)[C@H](CCC(=O)NC[C@H](O)[C@@H](O)[C@H](O)[C@H](O)CO)NC(=O)[C@H](CCC(=O)O)NC(=O)[C@H](CCC(=O)NC[C@H](O)[C@@H](O)[C@H](O)[C@H](O)CO)NC(=O)CC[C@H](NC(=O)c4ccc(NCc5cnc6nc(N)[nH]c(=O)c6n5)cc4)C(=O)O)C(=O)O)C(=O)O)cc3)nc12 [EC0746]
- bioavailability after subcutaneous administration ([4]; rats): bioavailable after subcutaneous administration
- elimination half-life of EC0746 ([4]; single sc dose of EC0746, 500 nmol/kg, rats): ~35 min
- Area Under Curve for free drug (aminopterin+aminopterin hydrazide) [4, 7]: 7.3 nmol·min/mL
- Cmax for free drug (aminopterin+aminopterin hydrazide) [4, 7]: 0.034 µM
- Cmax for free drug as % of the total dose [4, 7]: 9.6%
- time of Cmax for free drug (aminopterin+aminopterin hydrazide) [4, 7]: 60 min
- therapeutic index (MTD for healthy animals/ED50 in AIA) ([5]; 2000/210): about 9.5
- MTD relative to MTD for free aminopterin, based on ~20% free drug release (0.4 μmol/kg equivalent) ([5]; rat, in vivo): 8 ×
- MTD relative to free aminopterin on a molar basis for total aminopterin ([5]; rat, in vivo): 40 ×
- gastrointestinal-associated toxicities at MTD dose ([5]; rats): showed less gastrointestinal-associated toxicities than AMT and MTX
- EC50 (RAW264.7 cells; 2 h treatment, then 70-72 h in drug-free medium, read-out: EC50 (ED50), viability/proliferation of RAW264.7 cells, XTT assay): 0.3 nM and ~0.3 nM
- Relative affinity to folate receptors (folic acid set as 1) [2]: 0.27
- Relative affinity to folate receptors (folic acid set as 1) [3]: 0.5

Molecule: Nc1nc2ncc(CNc3ccc(C(=O)N[C@@H](CCC(=O)N[C@H](CC(=O)O)C(=O)N[C@H](CC(=O)O)C(=O)O)C(=O)O)cc3)nc2c(=O)[nH]1 [EC0923]
- effect on development or severity of AIA ([1]; EC0923 alone, 125 μmol/kg/dose biweekly 2 weeks): did not have any impact on the development or severity of the disease
- dorsal to ventral paw thickness ([1]; EC0923 alone, 125 μmol/kg/dose biweekly, arthritic control ~9.8, healthy ~5.8): ~9.4 mm
- mean sum of histology scores (maximum 20) ([1]; EC0923 alone, 125 μmol/kg/dose biweekly, arthritic control ~15.3): 14.2
- Relative affinity to folate receptors (folic acid set as 1) [3]: 0.84

Molecule: NNC(=O)CC[C@H](NC(=O)c1ccc(NCc2cnc3nc(N)nc(N)c3n2)cc1)C(=O)O [EC0470, aminopterin gamma-hydrazide]
- delay of peak plasma appearance from the EC0746 Cmax ([4]; EC0746-dosed rats, sc 500 nmol/kg): 30 min
- Tmax of released base drug in plasma ([4]; after single sc dose of EC0746, 500 nmol/kg, rats): ~60 min
- potency on cell proliferation and LPS-stimulated TNF-α production (RAW264.7 cells; 72 h incubations of RAW264.7 macrophages): equally potent
